The source of these data is article PMC11166458, “Caskin2 is a novel talin- and Abi1-binding protein that promotes cell motility” (Journal of Cell Science, 2024).

For assay [1], the system named is MCF7 cells. Briefly: Caskin2–talin colocalization in MCF7 cells (Pearson's correlation). The assay is classed as cell-based, Human. The settings on record: blebbistatin 10 µM, 20 µM for 45 min (Fig. S3B). As for the experimental part: PA-JEB/β4 keratinocytes were seeded on glass coverslips and cultured for 24 h in complete KGM, and then continued to be cultured for a further 16 h in DMEM with 10% FCS. GE11^tetONβ1 and MCF7 cells were seeded on glass coverslips and cultured for 24 h in DMEM with 10% FCS. Cells were fixed in 2% paraformaldehyde and permeabilized with 0.2% Triton X-100 for 5 min, blocked with PBS containing 2% bovine serum albumin (BSA; Sigma-Aldrich) for 45 min and subsequently incubated with primary and secondary antibodies for 1 h. In between antibody steps, the coverslips were washed three times with PBS. Actin fibers were visualized by staining with Phalloidin–Alexa Fluor 647 (Cell Signaling Technology). Nuclei were stained with DAPI. Samples were mounted on glass slides in Mowiol after three washing steps with PBS. Images were acquired with a Leica TCS SP5 confocal microscope with a 63× (NA 1.4) oil objective. Software for image acquisition is Leica LAS AF 3.0.2 ([Wang et al., 2020b]).
Imaging analysis was performed using FIJI software ([Schindelin et al., 2012]). The levels of colocalization between Caskin2 and various other proteins, including integrin β4, FA proteins and CMSC components, was performed using Pearson's co-efficient analysis in the JACoP module of ImageJ ([Carisey et al., 2013]; [Wang et al., 2020b]).

Assay [2] has as its system talin-R7R8 (residues 1358–1653), R8 domain. The assay is described as follows: X-ray structure of talin-R7R8 in complex with Caskin2-LD peptide, interface analysis. The assay is classed as binding, murine. The settings on record: electron density map; 1:2 molar ratio of protein to peptide. The procedure:
A codon-optimized synthetic gene encoding murine talin-R7/R8 domains (residues 1358–1653) was cloned into the pETNKI-6xhis-3C-LIC vector ([Luna-Vargas et al., 2011]). The 6×his–3C–talin-R7/R8 protein was expressed in Bl21(DE3) cells, for 18 h at 20°C upon induction with 0.4 mM IPTG. Cells were harvested by centrifugation (4000 g for 15 min) and stored at −20°C. After thawing, cells were resuspended in lysis buffer [25 mM Tris-HCl pH 8.0, 10 mM imidazole, 200 mM NaCl, 1 mM TCEP and 5 μg/ml DNase (Roche)] and lysed by sonication. The soluble lysate fractions were collected after centrifugation (55,000 g at 4°C for 30 min) and applied to a nickel Sepharose column. Beads were washed with wash buffer (lysis buffer without DNase) and protein was eluted in the same buffer supplemented with 250 mM imidazole. The 6×His tag was cleaved off by his-3C protease during dialysis against 25 mM Tris-HCl pH 8.0, 100 mM NaCl, 1 mM TCEP for 16 h at 4°C. The protein solution was diluted with an equal volume of 25 mM Tris-HCl pH 8.0, 1 mM TCEP before his-3C protease and uncleaved 6×his–talin-R7/R8 were removed by nickel Sepharose. The protein was further purified by anion exchange chromatography (Resource Q column, Cytiva) followed by size exclusion chromatography (S75 Superdex 16/60, Cytiva) in 25 mM Tris-HCl pH 8.0, 100 mM NaCl, 1 mM TCEP. Talin-R7/R8 eluted in a single peak. […]

No end group written: not given here.

With `Cc1ccc2c(c1)C(=O)C1(O)CCN(c3ccccc3)C1=N2` (centres unmarked) [blebbistatin], the “overall Caskin2–talin colocalization” value in assay [1] was “increased overall Caskin2–talin colocalization”.

As for “Caskin2-LD peptide: C-terminal LD motif peptide of Caskin2 (residues 1187–1202) (STMFDALADQLDAMLD; also: Atto488 label)”, in assay [2], the “binding to talin-R8 in crystal structure” value is recorded as “clear binding of the Caskin2-LD peptide to the R8 motif”.
